Assay results from paper PMC7913925, “Design and Evaluation of a Polypeptide That Mimics the Integrin Binding Site for EDA Fibronectin to Block Profibrotic Cell Activity” (International Journal of Molecular Sciences, 2021).
Blank lines part the entries; values can stand above or below the molecule they belong to. Bridges are numbered along the chain shown (N, C = ends). Where no end group is shown, it is not given here.

How the values were obtained:
[1] = tested on: fixed ECM of fibroblasts or differentiated myofibroblasts; test: AF38Pep-Cy5 labelling of ECM vs FN1 immunostaining; format: cell-based
Protocol: A solution containing 1:1 molar ratio of AF38Pep to non-sulphated Cy5-NHS-ester (APExBIO, Houston, TX, USA) was incubated overnight in RT, shielded from light and under constant mixing. The following day, the solution was passed through a PD-10 Sephadex G-25 M gel filtration column (GE Healthcare, Chicago, IL, USA) into PBS. The first 3 fractions (highest molecular weight) were collected, dialyzed (membrane MWCO 1 kDa) against ddH2O overnight, and concentrated by vacuum centrifuge at 3000 rpm at 60 °C for 3 h. Fibroblasts were grown to 70% confluence in 12-well tissue culture plates, before growth arrest in serum-free DMEM for 48 h. […] Any AF38Pep-Cy5 that remained bound to EDA-FN was assessed using an IVIS imaging system (Caliper Life Sciences, PerkinElmer, Hopkinton, MA, USA) set to detect Cy5.5 epifluorescence after excitation at 640 nm. Epifluorescence was quantified using Living Image v4.2 analysis software (Caliper Life Sciences).
Cells were grown to 40% confluence in 8-well glass chamber slides (Nunc, Thermo Fisher Scientific), prior to growth arrest and treatment. […] Cells were then mounted in DAPI Fluoromount-G (Thermo Fisher Scientific) and imaged using a Zeiss Axio Imager Z1 UV fluorescence microscope (Zeiss, Jena, Germany) and a Leica TCS SP5 laser scanning confocal microscope (Leica Biosystems, Baden-Württemberg, Germany).

[2] = tested on: EDA-FN in fixed fibroblast or myofibroblast ECM; test: Competitive labelling of fixed matrices, AF38Pep-Cy5 and IST-9; format: cell-based
Protocol: (§1) A solution containing 1:1 molar ratio of AF38Pep to non-sulphated Cy5-NHS-ester (APExBIO, Houston, TX, USA) was incubated overnight in RT, shielded from light and under constant mixing. The following day, the solution was passed through a PD-10 Sephadex G-25 M gel filtration column (GE Healthcare, Chicago, IL, USA) into PBS. The first 3 fractions (highest molecular weight) were collected, dialyzed (membrane MWCO 1 kDa) against ddH2O overnight, and concentrated by vacuum centrifuge at 3000 rpm at 60 °C for 3 h. Fibroblasts were grown to 70% confluence in 12-well tissue culture plates, before growth arrest in serum-free DMEM for 48 h. Cells were then treated with 10 ng/mL TGF-β1 for 0, 24, 48 and 72 h. The conjugated AF38Pep-Cy5 was added to the plate wells at 10 µg/mL and was incubated for 2 h. The culture medium was removed, and cells were washed three times with PBS before replenishment with fresh serum-free DMEM. Any AF38Pep-Cy5 that remained bound to EDA-FN was assessed using an IVIS imaging system (Caliper Life Sciences, PerkinElmer, Hopkinton, MA, USA) set to detect Cy5.5 epifluorescence after excitation at 640 nm. Epifluorescence was quantified using Living Image v4.2 analysis software (Caliper Life Sciences).
Cells were grown to 40% confluence in 8-well glass chamber slides (Nunc, Thermo Fisher Scientific), prior to growth arrest and treatment. Cells were washed with PBS before fixation in 4% paraformaldehyde for 10 min at room temperature. Next, cells were permeabilized with 0.1% (v/v) Triton X-100 in PBS for 10 min at room temperature. For visualization of ECM, cells were fixed with 100% ice-cold methanol for 8 min at −20 °C. Slides were washed with PBS and blocked with 1% goat serum (TBD Science, Tianjin, China) for 30 min before washing with 0.1% (w/v) BSA in PBS. […] Cells were then mounted in DAPI Fluoromount-G (Thermo Fisher Scientific) and imaged using a Zeiss Axio Imager Z1 UV fluorescence microscope (Zeiss, Jena, Germany) and a Leica TCS SP5 laser scanning confocal microscope (Leica Biosystems, Baden-Württemberg, Germany).

[3] = tested on: EDA-FN ECM of TGF-β1-treated fibroblasts; test: Epifluorescence assay of AF38Pep-Cy5 binding to fibrotic ECM (IVIS); format: cell-based; conditions: AF38Pep-Cy5 10 µg/mL
Protocol: as §1

[4] = target: integrin α4 protein (ITGA4) (not stated (endogenous in fibroblasts; mouse NIH/3T3 and human HFL1 cells were cultured)) (UniProt Q00651); conditions: scale: % of that observed in cells that only received TGF-β1 treatment
[5] = target: T1, antifibrotic 38-amino-acid polypeptide (AF38Pep) (disulfide bridge between the two cysteines); test: ITC; 15 µM AF38Pep in the chamber well, 300 µM small peptide in the injection needle; 25 °C; HEPES buffered saline (140 mM NaCl, 1.5 mM Na2HPO4, 50 mM HEPES; pH 7); MicroCal iTC200; one set of sites model with number of binding sites assumed to be 1; conditions: both partners purified
T1 construct: two stretches derived from integrins β1 and α4, linked by a serine; Design contains the ISTTPAK motif of integrin β1/β7 and the KNENKI motif of integrin α4; source: synthetic peptide (ChinaPeptides)
T1 peptide: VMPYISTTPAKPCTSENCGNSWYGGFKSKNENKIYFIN

[6] = target: T2, FN-EDA, a peptide sharing amino acid sequence with the C-C′ loop of EDA-FN; test: ITC
T2 peptide: TYSSPEDGIHEL

[7] = target: T2, FN-EDA, a peptide sharing amino acid …; test: ITC

integrin α4 protein (ITGA4) (not stated (endogenous in fibroblasts; mouse NIH/3T3 and human HFL1 cells were cultured)), sequence (Q00651 41-1039): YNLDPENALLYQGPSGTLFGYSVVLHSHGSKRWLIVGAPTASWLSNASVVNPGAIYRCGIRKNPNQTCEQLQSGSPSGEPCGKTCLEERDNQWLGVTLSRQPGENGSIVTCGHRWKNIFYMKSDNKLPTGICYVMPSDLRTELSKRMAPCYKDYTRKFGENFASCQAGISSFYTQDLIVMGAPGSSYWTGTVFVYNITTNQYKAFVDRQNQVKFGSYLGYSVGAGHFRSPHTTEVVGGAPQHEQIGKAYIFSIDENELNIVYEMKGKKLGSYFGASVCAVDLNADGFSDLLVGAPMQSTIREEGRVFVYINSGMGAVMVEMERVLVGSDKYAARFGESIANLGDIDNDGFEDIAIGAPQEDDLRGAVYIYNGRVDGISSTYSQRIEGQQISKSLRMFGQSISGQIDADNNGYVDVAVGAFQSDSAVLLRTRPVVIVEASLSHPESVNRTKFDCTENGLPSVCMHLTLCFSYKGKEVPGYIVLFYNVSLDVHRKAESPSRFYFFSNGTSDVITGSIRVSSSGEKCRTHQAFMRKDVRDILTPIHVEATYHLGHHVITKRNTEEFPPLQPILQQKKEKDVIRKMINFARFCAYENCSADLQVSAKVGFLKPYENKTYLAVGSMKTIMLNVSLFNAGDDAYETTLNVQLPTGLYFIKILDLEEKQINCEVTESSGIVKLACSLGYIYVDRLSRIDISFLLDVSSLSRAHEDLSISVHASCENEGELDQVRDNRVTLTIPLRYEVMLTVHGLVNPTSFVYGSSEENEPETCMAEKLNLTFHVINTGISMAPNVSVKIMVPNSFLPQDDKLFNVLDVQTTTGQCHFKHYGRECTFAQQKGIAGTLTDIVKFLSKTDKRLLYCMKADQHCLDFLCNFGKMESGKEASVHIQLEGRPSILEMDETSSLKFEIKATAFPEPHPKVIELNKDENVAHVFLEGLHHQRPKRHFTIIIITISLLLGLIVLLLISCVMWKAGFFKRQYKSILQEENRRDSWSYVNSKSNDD

Molecule: AF38Pep-Cy5: AF38Pep conjugated to Cy5 dye (non-sulphated Cy5-NHS-ester) (VMPYISTTPAKPCTSENCGNSWYGGFKSKNENKIYFIN; disulfide 13-18 (inferred); also: Cy5 label, site not given here)
- AF38Pep-Cy5 colocalization with FN1 staining, myofibroblast ECM ([1]; differentiated myofibroblasts): colocalization with anti-FN1 staining (yellow) was prominent in areas of fibronectin deposition at cell membranes
- AF38Pep-Cy5 staining of fibroblast ECM ([1]; untreated control fibroblasts): little to no staining
- staining of fibroblast matrices, IST-9 or AF38Pep-Cy5 ([2]; fibroblasts, regardless of the order of addition): minimal, regardless of the order of addition to cells
- blocking of IST-9 staining by AF38Pep-Cy5 pretreatment ([2]; myofibroblasts, AF38Pep-Cy5 first, then IST-9): pre-treatment blocked IST-9 staining
- labelling of EDA-FN after IST-9 pretreatment ([2]; myofibroblasts, IST-9 first, then AF38Pep-Cy5): failed to label the elevated EDA-FN production
- binding to fibrotic ECM with TGF-β1 treatment time ([3]; TGF-β1 10 ng/mL for 24, 48, 72 h): increased binding of AF38Pep to the fibrotic ECM, which correlated with the increasing time of TGF-β1 treatment
- binding at 48 h vs 0 h TGF-β1 treatment ([3]; mean ± S.E., three experiments): significant increases in binding at 48 h

- total collagen synthesis (hydroxyproline assay) of NIH/3T3 cells after 48 h of TGF-β1 with AF38Pep as blocker, relative to TGF-β1 alone [4]: 60
Molecule: extra domain A containing fibronectin (EDA-FN) (from UniProt P11276 33-2477) (natural protein)

- binding result [5]: binds
B1: FN-EDA, a peptide sharing amino acid sequence with the C-C′ loop of EDA-FN (peptide)
peptide: TYSSPEDGIHEL
notes: 12-residue stretch of the C-C′ loop of extra domain A (EDA) of fibronectin; also called fibronectin EDA-peptide; EDA-FN C-C′ loop peptide; source: synthetic peptide (ChinaPeptides)

- Ka [6]: 1.11e+06 M⁻¹
- Kd [7]: 858 nM
Molecule: VMPYISTTPAKPCTSENCGNSWYGGFKSKNENKIYFIN (designed binder, disulfide 13-18 (inferred)) [antifibrotic 38-amino-acid polypeptide (AF38Pep)]
